# From publication PMC10235067, “Increased renal elimination of endogenous and synthetic pyrimidine nucleosides in concentrative nucleoside transporter 1 deficient mice” (Nature Communications, 2023)
# Values joined by “and” are separate entries in the source; they are usually repeats but may differ in a detail not shown here. Equal entries are not always repeated.
# What was measured:
# [1] = Gemcitabine plasma pharmacokinetics in Slc28a1+/+ and Slc28a1-/- mice; settings: for C0: C0, dFdU in plasma; for MRT last: MRTlast
# Procedure: To collect blood, a 5 mm lancet was used to apply pressure to the submandibular vein and release blood flow. For retro-orbital collection, mice were anesthetized with 3% isoflurane in oxygen, and the blood was collected directly into heparinized capillary tubes by applying slight pressure to the medial canthus of the eye. Cardiac puncture was performed as the final collection method by first euthanizing the mice in a CO2 chamber and immediately performing posterior cardiac puncture by inserting a 27 G needle with a 1 ml syringe attachment into the heart. Once blood collection was completed, gentle pressure was applied to the blood collection area using gauze to stop the bleeding. Thirty microliters of blood was collected into heparinized capillary tubes at each time point, transferred into prelabeled 0.5 ml microcentrifuge tubes containing THU (10 µg/ml; final concentration), and immediately processed and snap-frozen following procedures outlined in the “Gemcitabine plasma pharmacokinetics” methods section.
# Gemcitabine and dFdU plasma concentrations were measured using a modified version of our previously published UHPLC–MS/MS method for nucleosides[74] […] Noncompartmental pharmacokinetic parameters (Cmax, Tmax, AUC, CL, T1/2, etc.) were calculated using WinNonlin 6.2 software (Pharsight; Mountain View, CA). […] The Cmax and Tmax were obtained from the concentration-time curve. The AUC was calculated according to the linear trapezoidal rule up to the last time point with a measurable concentration of the analyte of interest. Significant differences between Slc28a1^+/+ and Slc28a1^−/− mouse pharmacokinetic parameters (p < 0.05) were evaluated with an unpaired two-sided Student’s t-test.
# The resulting supernatant was evaporated to dryness in a SpeedVac, and the remaining residue was reconstituted in mobile phase A for subsequent analysis. […] Subsequent processing was identical to that for the plasma and urine samples.
# Briefly, the analysis was performed on an Imtakt Schzero SM C18 column, 2.1 × 100 mm, 3.0 µm particle size. The eluents used consisted of mobile phase A consisting of 50 mM ammonium formate:50 mM ammonium hydroxide (9:1, v/v) (pH = 8.6) and mobile phase B consisting of 50 mM ammonium formate:50 mM ammonium hydroxide (9:1, v/v):ACN (80:20, v/v) (pH = 8.6). […] The injection volume was 10 μL, and the autosampler temperature was set at 4 °C throughout the analysis.
# The Waters Triple Quadrupole Mass Spectrometer with an ESI source was operated in negative and positive ion mode at a spray voltage of 2.5 kV, capillary temperature of 150 °C, and vaporizer temperature of 250 °C. Compound optimization was performed manually using the MassLynx 4.1 Software AutoTune Wizard (Waters, Milford, MA) by infusion into the mass spectrometer using a T-connector. […] Analyze concentrations were determined and analyzed using MassLynx Mass Spectrometry Software (Waters; Milford, MA).
# [2] = cited from earlier work
# [3] = Gemcitabine urine pharmacokinetics (renal excretion) in Slc28a1+/+ and Slc28a1-/- mice; settings: Figure 5 G, H, I, individual mice; for concentration at 5 min / concentration at 10 min / concentration at 15 min / concentration at 30 min / concentration at 60 min / concentration at 120 min / concentration at 240 min: mouse, urine, intravenous, 50 mg/kg, Cp (dFdU)
# Procedure: THU was added to the mouse urine samples upon collection and frozen until analysis. […] Five microliters of the diluted samples were transferred to a 96-well autosampler plate then 10 µL of internal standard mixture was added and mixed. […] The plate was then transferred to the 4 °C autosampler for analysis.
# The chromatographic separation was performed on a Thermo Accucore aQ 2.6 µm, 100 ×2.1 mm column at 30 °C using a gradient with a 10 µL injection volume. The mobiles phases were 1 mM ammonium acetate in deionized water pH 6.8 and acetonitrile. The total run time was 5.5 min. […] The LC–MS/MS analysis was conducted on a Thermo Vanquish UHPLC with a TSQ Quantiva mass spectrometer equipped with an electrospray ionization source.
# [4] = dFdU in plasma, WT mice, iv gemcitabine 50mg/kg, per mouse
# [5] = female, Slc28a1-/- (CNT1 knockout; background strain not stated), mouse, plasma, intravenous, 50 mg/kg, Cp (dFdU), KO mice, single iv gemcitabine 50mg/kg
# [6] = female, mouse, plasma, intravenous, 50 mg/kg, Cp (dFdU), WT mice, single iv gemcitabine 50mg/kg
compound,measurement,setting,value
"O=c1ccn([C@@H]2O[C@H](CO)[C@@H](O)C2(F)F)c(=O)[nH]1 [dFdU, 2′,2′-difluorodeoxyuridine]",MRTINF_pred,[1]; [4],88.315 min and 25.0092 min and 14.2143 min and 30.2855 min
same,MRTlast,[1]; [4],7.307 min and 11.7511 min and 10.7753 min and 12.973 min and 10.8216 min
same,Tlast,[1]; [4],15 min and 30 min
same,Tmax,[1]; [4],10 min and 5 min and 15 min
same,Vss_obs,[1]; [4],108.907 L/kg and 105.643 L/kg and 83.3357 L/kg and 80.1423 L/kg
same,Vss_pred,[1]; [4],108.137 L/kg and 105.015 L/kg and 82.9031 L/kg and 80.1342 L/kg
same,Vz_obs,[1]; [4],108.979 L/kg and 99.2063 L/kg and 70.6936 L/kg and 76.9343 L/kg
same,Vz_pred,[1]; [4],108.051 L/kg and 103.79 L/kg and 71.0811 L/kg and 76.7768 L/kg
same,concentration at 120 min,[1]; [5],0 ng/mL
same,concentration at 240 min,[1]; [5],0 ng/mL
same,concentration at 5 min,"[1]; female, mouse, plasma, intravenous, 50 mg/kg, Cp (dFdU), KO mice, single iv gemcitabine 50mg/kg, 5 min",400 ng/mL
same,concentration at 60 min,"[1]; female, mouse, plasma, intravenous, 50 mg/kg, Cp (dFdU), KO mice, single iv gemcitabine 50mg/kg",0 ng/mL
same,concentration at 60 min,[1]; [6],0 ng/mL
same,concentration at 120 min,[1]; [6],0 ng/mL
same,concentration at 240 min,[1]; [6],0 ng/mL
same,AUC(0-inf),"[1]; female, mouse, plasma, iv, 50 mg/kg, AUCINF_obs, dFdU in plasma, KO mice, iv gemcitabine 50mg/kg, per mouse",121 ng·h/mL
same,AUC(0-inf),"[1]; female, mouse, plasma, iv, 50 mg/kg, AUCINF_pred, dFdU in plasma, KO mice, iv gemcitabine 50mg/kg, per mouse",121 ng·h/mL
same,C0,"[1]; female, mouse, plasma, iv, 50 mg/kg, KO mice, iv gemcitabine 50mg/kg, per mouse",408 ng/mL
same,C0,"[1]; female, mouse, plasma, iv, 50 mg/kg, WT mice, iv gemcitabine 50mg/kg, per mouse",445 ng/mL
same,Cmax,"[1]; female, mouse, plasma, iv, 50 mg/kg, Slc28a1+/+ mice, plasma, single i.v. dFdC 50 mg/kg",453 ± 7.35 ng/mL
same,Cmax,"[1]; female, mouse, plasma, iv, 50 mg/kg, Slc28a1-/- mice, single i.v. dFdC 50 mg/kg",386 ± 8.42 ng/mL
same,k el,"[1]; female, mouse, plasma, iv, 50 mg/kg, Lambda_z, dFdU in plasma, KO mice, iv gemcitabine 50mg/kg, per mouse",0.00206 s⁻¹
same,MRT inf,"[1]; female, mouse, plasma, iv, 50 mg/kg, MRTINF_obs, dFdU in plasma, KO mice, iv gemcitabine 50mg/kg, per mouse",10.1 min
same,MRT inf,"[1]; female, mouse, plasma, iv, 50 mg/kg, MRTINF_pred, dFdU in plasma, KO mice, iv gemcitabine 50mg/kg, per mouse",10.1 min
same,MRT last,"[1]; female, mouse, plasma, iv, 50 mg/kg, dFdU in plasma, KO mice, iv gemcitabine 50mg/kg, per mouse",9.07 min
same,MRT last,"[1]; female, mouse, plasma, iv, 50 mg/kg, dFdU in plasma, WT mice, iv gemcitabine 50mg/kg, per mouse",8.1 min
same,Tmax,"[1]; female, mouse, plasma, iv, 50 mg/kg, Tmax, Slc28a1+/+ mice, plasma, single i.v. dFdC 50 mg/kg",240 min
same,Tmax,"[1]; female, mouse, plasma, iv, 50 mg/kg, Tmax, Slc28a1-/- mice, single i.v. dFdC 50 mg/kg",240 min
same,Cp (dFdU),"[1]; plasma, KO mice, single iv gemcitabine 50mg/kg, 5 min",397.109 ng/mL and 353.736 ng/mL and 215.606 ng/mL and 287.027 ng/mL and 238.121 ng/mL
same,half-life,[2],~ 26 h
same,Cp (dFdU),"[3]; KO mice, 5 Minutes",317.288 ng/mL and 341.288 ng/mL and 338.288 ng/mL and 263.288 ng/mL
same,Cp (dFdU),"[3]; KO mice, 10 Minutes",227.479 ng/mL and 269.479 ng/mL and 242.479 ng/mL and 273.479 ng/mL and 275.479 ng/mL
same,Cp (dFdU),"[3]; KO mice, 15 Minutes",331.541 ng/mL and 373.541 ng/mL and 346.541 ng/mL and 377.541 ng/mL and 379.541 ng/mL
same,Cp (dFdU),"[3]; KO mice, 30 Minutes",322.048 ng/mL and 364.048 ng/mL and 337.048 ng/mL and 368.048 ng/mL and 370.048 ng/mL
same,Cp (dFdU),"[3]; KO mice, 60 Minutes",338.37 ng/mL and 380.37 ng/mL and 353.37 ng/mL and 384.37 ng/mL and 386.37 ng/mL
same,Cp (dFdU),"[3]; KO mice, 120 Minutes",342.398 ng/mL and 384.398 ng/mL and 357.398 ng/mL and 388.398 ng/mL and 390.398 ng/mL
same,Cp (dFdU),"[3]; KO mice, 240 Minutes",359.089 ng/mL and 401.089 ng/mL and 374.089 ng/mL and 405.089 ng/mL and 407.089 ng/mL
same,Cp (dFdU),"[3]; WT mice, 5 Minutes",390.036 ng/mL and 363.036 ng/mL and 387.036 ng/mL and 384.036 ng/mL and 309.036 ng/mL
same,Cp (dFdU),"[3]; WT mice, 10 Minutes",317.618 ng/mL and 359.618 ng/mL and 332.618 ng/mL and 363.618 ng/mL and 365.618 ng/mL
same,Cp (dFdU),"[3]; WT mice, 15 Minutes",319.343 ng/mL and 361.343 ng/mL and 334.343 ng/mL and 365.343 ng/mL and 367.343 ng/mL
same,Cp (dFdU),"[3]; WT mice, 30 Minutes",316.265 ng/mL and 358.265 ng/mL and 331.265 ng/mL and 362.265 ng/mL and 364.265 ng/mL
same,Cp (dFdU),"[3]; WT mice, 60 Minutes",316.849 ng/mL and 358.849 ng/mL and 331.849 ng/mL and 362.849 ng/mL and 364.849 ng/mL
same,Cp (dFdU),"[3]; WT mice, 120 Minutes",320.376 ng/mL and 362.376 ng/mL and 335.376 ng/mL and 366.376 ng/mL and 368.376 ng/mL
same,Cp (dFdU),"[3]; WT mice, 240 Minutes",471.043 ng/mL and 459.043 ng/mL and 432.043 ng/mL and 463.043 ng/mL and 465.043 ng/mL
same,concentration at 5 min,"[3]; KO mice, 5 Minutes",344 ng/mL
same,concentration at 10 min,"[3]; KO mice, 10 Minutes",239 ng/mL
same,concentration at 15 min,"[3]; KO mice, 15 Minutes",344 ng/mL
same,concentration at 30 min,"[3]; KO mice, 30 Minutes",334 ng/mL
same,concentration at 60 min,"[3]; KO mice, 60 Minutes",350 ng/mL
same,concentration at 120 min,"[3]; KO mice, 120 Minutes",354 ng/mL
same,concentration at 240 min,"[3]; KO mice, 240 Minutes",371 ng/mL
same,concentration at 5 min,"[3]; WT mice, 5 Minutes",328 ng/mL
same,concentration at 10 min,"[3]; WT mice, 10 Minutes",330 ng/mL
same,concentration at 15 min,"[3]; WT mice, 15 Minutes",331 ng/mL
same,concentration at 30 min,"[3]; WT mice, 30 Minutes",328 ng/mL
same,concentration at 60 min,"[3]; WT mice, 60 Minutes",329 ng/mL
same,concentration at 120 min,"[3]; WT mice, 120 Minutes",332 ng/mL
same,concentration at 240 min,"[3]; WT mice, 240 Minutes",429 ng/mL
